{"source": "patent US6486326B2", "about": "“iso-CBI and iso-CI analogs of CC-1065 duocarmycins” (The Scripps Research Institute, priority 1997, dated 2002)", "system": "w836 DNA (146 bp)", "experiment": "DNA alkylation selectivity and efficiency, thermally-induced strand cleavage of w836 DNA", "format": "biochemical", "method": "FIG. 6 illustsrates thermally-induced strand cleavage of w836 DNA (146 bp, nucleotide nos. 5189-91): DNA-agent incubation for 24 h ((−)-iso-CBI-TMI) at 25° C., removal of unbound agent and 30 min of thermolysis (100° C.), followed by denaturing 8% PAGE and autoradiography; lane 1, control DNA; lanes 2-5, Sanger G, C, A, and T sequencing reactions; lanes 6-8 (−)-iso-CBI-TMI ([…] to 1×10^−5 M); lanes 9-10, (+)-duocarmycin SA (1×10^−5 to 1×10^−6 M); lanes 11-12, (+)-iso-CBI-TMI (1×10^−2 and 1×10^−3).\nDNA Alkylation Selectivity and Efficiency: The DNA alkylation properties of the agents were examined within w794 and w836 duplex DNA for which comparative results are available for related agents. (Boger, D. L., et al., J. Am. Chem. Soc. 1994, 116, 11335; Boger, D. L., et al., J. Am. Chem. Soc. 1994, 116, 6461; and Boger, D. L., et al., J. Am. Chem. Soc. 1995, 117, 11647) The alkylation site identification and the assessment of the relative selectivity among the available sites were obtained by thermally-induced strand cleavage of the singly 5′ end-labeled duplex DNA after exposure to the agents. […]", "data": [{"compound": "COc1cc2cc(C(=O)N3CC4CC45C(=O)c4ccccc4C=C35)[nH]c2c(OC)c1OC", "note": "(single isomer, unassigned; (-)) [(−)-iso-CBI-TMI, 2-[(5,6,7-Trimethoxyindol-2-yl)carbonyl]-1,2,9,9a-tetrahydrocyclopropa[c]benzo[f]indol-8-one]", "values": [{"measurement": "DNA alkylation sites / selectivity", "result": "same sites as (+)-duocarmycin SA"}]}]}
